Results from patent US20200253914A1, “NOVEL FORMULATIONS” (priority 2015, published 2020).
Like-named read-outs stand apart in the source and are kept apart here.

Tests used:
[1] = in water and propylene glycol, after 90 days of storage; cited from earlier work
HaCaT cells = assay: HaCaT cell viability assay for skin irritancy potential; assay type: cell-based
Description: Irritancy potential of the individual surfactants as well as formulation chassis (placebo formulations) were evaluated using an in house in vitro test. The method utilizes HaCaT cell viability as a marker for irritation.
Briefly, HaCaT cells were seeded in 96-well plates (Nunc 96 well plate, Cat #165305) at density of 2×10^4 cells per well, and grown overnight before treatments. Test articles were diluted in water to make 10% stock solutions, which were serially diluted in DMEM to twice to the final treatment concentrations. Cells were treated in triplicates by adding 100 μl of serially diluted test articles to each well containing 100 μl fresh medium. After incubation at 37° C., 5% CO2 for 10 minutes in the presence of diluted placebos, cells were then washed with 200 μl of DPBS with Ca^++ and Mg^++ (Life Technologies #14040133) for 3 times. CellTiter-Blue reagent (Promega, G8081, 10× stock solution) was diluted to 1× working solution in cell culture medium and added to cells (100 μl/well). Cells were incubated at 37° C., 5% CO2 for 60 minutes and the cell viability was measured using fluorescent activity (Ex. 560 nm, Em. 590 nm). All treated samples were normalized to the untreated control. Cell viabilities were then used to assess skin irritation potential.
Cell viability studies were conducted to assess the skin irritation of the formulations using Neutrogena Ultra Gentle Daily Cleanser and PanOxyl 10 (Placebo) as the comparators. The results are shown in FIG. 2 for the 2.5% BPO formulations and FIG. 3 for the 10% BPO formulations. Sodium Lauryl […] (SLS) was used as the positive control. […] All 6 formulations outperformed Neutrogena Ultra Gentle with formulation #3(2.5%) being more than 3 fold milder than Neutrogena Ultra Gentle cleanser. The 2.5% prototypes were slightly milder than the 10% formulations. This is expected due to higher concentration of the surfactants in the 10% formulations.

[2] = BPO chemical stability in wash formulations and shelf life prediction; assay type: physicochemical; settings: increasing sorbitol concentrations in wash formulations
Description: BPO stability in the formulations of the present invention were assessed over time at 25° C./60% RH and 30° C./65% RH using environmentally controlled chambers. Specifically formulations containing 2.5% BPO or 10% BPO in glass vials were placed on stability, and monitored for BPO degradation.
Chemical stability of the BPO in surfactant based wash products is a challenge due to increased solubility of the BPO in these systems.

[3] = HaCaT cell viability, 10 minutes treatment, left = mildest, SLS positive control

Row | Compound | rank order of screened surfactants for mildness, based on EC 50 values (HaCaT cells; [3]) | also measured
1 | O=C(OOC(=O)c1ccccc1)c1ccccc1 [BPO, Benzoyl peroxide] |  | degradation of benzoyl peroxide in suspension (dispersed form) [1]: not degraded
2 | CCCCCCCCCCO[C@@H]1O[C@H](CO)[C@@H](O)[C@H](O)[C@H]1O [Plantaren 2000 N UP, decyl glucoside] | > Colonial AOS | 
3 | OC[C@@H](O)[C@@H](O)[C@H](O)[C@@H](O)CO [sorbitol, D-Sorbitol] |  | effect of humectant on BPO stability (benzoic acid generated) [2]: improve BPO stability
4 | Cocamidopropyl PG-Dimonium Chloride Phosphate [Cola Lipid C] | > SLS | 
5 | Sodium C14-C17 sec-alkyl sulfonate [Hostapur SAS 60] | SLS | 
6 | Sodium Hydroxyethylglycinate cocoglucoside crosspolymer and sodium bis-hydroxytethylglycinate lauryl glucoside crosspolymer [PolySuga Glycinate C] |  | rank order of screened surfactants for mildness, based on EC 50 values (HaCaT cells): > PolySuga Phos 1200P
7 | Sodium Laurylglucoside Hydroxypropylsufonate [Suganate 160 NC] |  | rank order of screened surfactants for mildness, based on EC 50 values (HaCaT cells): > Plantaren 2000 N UP
8 | sodium C14-16 Olefin sulfonate [Colonial AOS] | > Cola Lipid C | 
